From patent US10865188B2, “Dibenzo azepine compounds and their use in the treatment of otic diseases and disorders” (Pipeline Therapeutics, Inc., priority 2015, dated 2020)

Tested on: HES1
Test: Human neural stem cell assay, Hes1 gene expression (real-time PCR)
Format: cell-based
Conditions: human neural stem cells, 7 point CRC, read-out: hNSC HES1 IC50
Procedure: Neural stem cells (NSC) were derived from embryonic stem cells using a published protocol (Yuan et al., Mar. 2, 2011, PLoS ONE, 6(3):e17540). Cells were sorted and characterized at passage 3 and were expanded. Cells were then frozen at passage 5. Cells were maintained in NSC media (DMEM/F12, N2 (1×), B27(1×) (Invitrogen), and Pen/Strep (1×) (Life Technologies) with 20 ng/ml bFGF (BD Bioscience/Corning)). On day 1, cells were plated in 96 well plates that have been previously coated with poly-ornithin and laminin, 60,000 cells/well in 100 μl of media. On day 2, spent media was removed, and 180 μl of fresh media was added to the cells. Later that same day (day 2), cells were treated with 20 μl of NSC media containing test compounds (7 point CRC). On day 3, spent media was removed and 140 μl of RLT/bME was added to the cells. RNA was extracted using the QiaCube (Qiagen®, Germantown, Md., USA) using the total RNA extraction+DNAse protocol. RNA was then reverse-transcribed to cDNA using iScript (Bio-Rad, Hercules, Calif., USA). cDNA was then used for real-time PCR analysis using iTaq Sybergreen (BioRad). Expression of Atoh1, Hes5, Hes1, Myosin7a genes was evaluated using CFX96 or CFX384 (Bio-Rad). HPRT1 was used as a reference gene. Analysis was done using Microsoft® Excel® and CBIS (ChemInnovation Software, Inc., San Diego, Calif., USA). […]

C[C@H](OC(=O)NCC(F)(F)C(F)(F)F)C(=O)N[C@@H]1C(=O)Nc2ccccc2-c2ccccc21 [Compound I, (2,2,3,3,3-pentafluoropropyl)-carbamic acid (S)-1-((S)-6-oxo-6,7-dihydro-5H-dibenzo[b,d]azepin-7-ylcarbamoyl) ethyl ester]
IC50: 0.242 µM
